Legend:
Assay in all cases: kinome screen (33PanQinase)
Assay type in all cases: biochemical
CDK5/p35NCK = molecular target: T1, CDK5/p35NCK (Homo sapiens, UniProt Q00535)
T1 construct: purchased Reaction Biology Europe GmbH (formerly ProQinase)
Method: (§1) The Kinome Screening was performed by Reaction Biology Europe GmbH (http://reactionbiology.com; Freiburg i. Br., Germany).

TRKA = molecular target: T2, TRKA (Homo sapiens, UniProt P04629)
T2 construct: purchased Reaction Biology Europe GmbH (formerly ProQinase)
Method: as §1

TRKC = molecular target: T3, TRKC (Homo sapiens, UniProt Q16288)
T3 construct: purchased Reaction Biology Europe GmbH (formerly ProQinase)
Method: as §1

EPHA2 = molecular target: T4, EPHA2 (Homo sapiens, UniProt P29317)
T4 construct: purchased Reaction Biology Europe GmbH (formerly ProQinase)
Method: as §1

RIPK4 = molecular target: T5, RIPK4 (Homo sapiens, UniProt P57078)
T5 construct: purchased Reaction Biology Europe GmbH (formerly ProQinase)
T5 sequence (P57078 1-832): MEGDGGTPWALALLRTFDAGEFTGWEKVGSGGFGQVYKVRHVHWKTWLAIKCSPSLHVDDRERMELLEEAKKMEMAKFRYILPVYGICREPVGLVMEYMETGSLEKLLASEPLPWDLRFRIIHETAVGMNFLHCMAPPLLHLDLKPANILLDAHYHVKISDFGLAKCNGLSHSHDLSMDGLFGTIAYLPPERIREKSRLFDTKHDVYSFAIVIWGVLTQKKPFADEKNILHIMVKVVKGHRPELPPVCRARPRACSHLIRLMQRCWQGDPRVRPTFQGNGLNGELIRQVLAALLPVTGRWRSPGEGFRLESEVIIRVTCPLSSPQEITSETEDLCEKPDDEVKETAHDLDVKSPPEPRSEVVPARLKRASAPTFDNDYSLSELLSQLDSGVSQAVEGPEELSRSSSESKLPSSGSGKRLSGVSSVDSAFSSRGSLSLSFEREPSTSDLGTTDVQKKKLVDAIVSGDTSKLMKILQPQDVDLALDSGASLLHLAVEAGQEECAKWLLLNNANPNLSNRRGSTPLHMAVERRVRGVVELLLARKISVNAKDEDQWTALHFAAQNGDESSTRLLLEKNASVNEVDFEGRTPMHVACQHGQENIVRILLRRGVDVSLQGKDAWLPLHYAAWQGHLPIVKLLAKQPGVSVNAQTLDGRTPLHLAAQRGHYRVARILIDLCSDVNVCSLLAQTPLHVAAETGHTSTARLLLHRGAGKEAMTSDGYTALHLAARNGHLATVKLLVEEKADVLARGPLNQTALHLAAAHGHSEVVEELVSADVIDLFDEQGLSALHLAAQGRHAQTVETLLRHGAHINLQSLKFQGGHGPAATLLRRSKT
Method: as §1

MAPKAPK5 = molecular target: T6, MAPKAPK5 (Homo sapiens, UniProt Q8IW41)
T6 construct: purchased Reaction Biology Europe GmbH (formerly ProQinase)
Method: as §1

PIM1 = molecular target: T7, PIM1 (Homo sapiens, UniProt P11309)
T7 construct: purchased Reaction Biology Europe GmbH (formerly ProQinase)
Method: as §1

EPHB3 = molecular target: T8, EPHB3 (Homo sapiens, UniProt P54753)
T8 construct: purchased Reaction Biology Europe GmbH (formerly ProQinase)
T8 sequence (P54753 34-998): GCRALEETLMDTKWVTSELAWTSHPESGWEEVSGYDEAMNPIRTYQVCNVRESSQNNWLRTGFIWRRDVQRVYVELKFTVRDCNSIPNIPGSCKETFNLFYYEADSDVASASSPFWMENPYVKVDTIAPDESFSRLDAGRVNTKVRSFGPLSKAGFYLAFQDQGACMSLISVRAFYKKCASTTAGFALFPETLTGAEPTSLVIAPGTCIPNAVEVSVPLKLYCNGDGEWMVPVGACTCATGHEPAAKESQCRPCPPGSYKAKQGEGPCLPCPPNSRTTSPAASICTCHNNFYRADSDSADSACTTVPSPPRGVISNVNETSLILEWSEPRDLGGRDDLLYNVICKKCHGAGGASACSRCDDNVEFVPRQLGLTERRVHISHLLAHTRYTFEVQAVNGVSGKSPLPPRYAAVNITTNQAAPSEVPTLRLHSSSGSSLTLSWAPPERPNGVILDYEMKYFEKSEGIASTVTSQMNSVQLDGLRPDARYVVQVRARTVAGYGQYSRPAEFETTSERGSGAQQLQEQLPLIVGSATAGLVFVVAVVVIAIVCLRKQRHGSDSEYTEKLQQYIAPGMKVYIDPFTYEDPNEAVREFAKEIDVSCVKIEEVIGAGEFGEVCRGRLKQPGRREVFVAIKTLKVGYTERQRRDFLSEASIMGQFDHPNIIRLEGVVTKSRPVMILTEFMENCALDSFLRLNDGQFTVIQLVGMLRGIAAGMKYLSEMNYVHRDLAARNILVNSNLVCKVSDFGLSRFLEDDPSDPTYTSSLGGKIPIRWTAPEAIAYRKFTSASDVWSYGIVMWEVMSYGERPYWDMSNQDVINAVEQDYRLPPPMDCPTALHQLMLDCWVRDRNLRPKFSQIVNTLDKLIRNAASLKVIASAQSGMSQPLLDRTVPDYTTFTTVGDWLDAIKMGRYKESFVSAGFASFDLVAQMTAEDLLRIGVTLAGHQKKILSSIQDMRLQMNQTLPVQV
Method: as §1

GSK3α = molecular target: T9, GSK3α (Homo sapiens, UniProt P49840)
T9 construct: purchased Reaction Biology Europe GmbH (formerly ProQinase)
Method: as §1

NEK4 = molecular target: T10, NEK4 (Homo sapiens, UniProt P51957)
T10 construct: purchased Reaction Biology Europe GmbH (formerly ProQinase)
Method: as §1

MST3 = molecular target: T11, MST3 (Homo sapiens, UniProt Q9Y6E0)
T11 construct: purchased Reaction Biology Europe GmbH (formerly ProQinase)
Method: as §1

NIK = molecular target: T12, NIK (Homo sapiens, UniProt Q99558)
T12 construct: purchased Reaction Biology Europe GmbH (formerly ProQinase)
Method: as §1

NEK7 = molecular target: T13, NEK7 (Homo sapiens, UniProt Q8TDX7)
T13 construct: purchased Reaction Biology Europe GmbH (formerly ProQinase)
Method: as §1

COT = molecular target: T14, COT (Homo sapiens, UniProt P41279)
T14 construct: purchased Reaction Biology Europe GmbH (formerly ProQinase)
Method: as §1

T14 sequence (P41279 whole entry): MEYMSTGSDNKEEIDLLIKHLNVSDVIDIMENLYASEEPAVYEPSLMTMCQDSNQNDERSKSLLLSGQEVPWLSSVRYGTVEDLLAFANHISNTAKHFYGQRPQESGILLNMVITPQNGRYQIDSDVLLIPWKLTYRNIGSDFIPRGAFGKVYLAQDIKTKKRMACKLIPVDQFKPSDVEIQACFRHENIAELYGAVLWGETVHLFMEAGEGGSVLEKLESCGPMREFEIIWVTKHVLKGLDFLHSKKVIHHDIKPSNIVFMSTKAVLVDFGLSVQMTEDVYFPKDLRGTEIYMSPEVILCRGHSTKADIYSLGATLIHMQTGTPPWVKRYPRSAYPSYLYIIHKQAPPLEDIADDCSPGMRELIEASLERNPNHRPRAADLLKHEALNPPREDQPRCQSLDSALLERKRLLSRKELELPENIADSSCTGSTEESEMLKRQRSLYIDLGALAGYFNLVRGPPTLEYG
T10 sequence (P51957 whole entry): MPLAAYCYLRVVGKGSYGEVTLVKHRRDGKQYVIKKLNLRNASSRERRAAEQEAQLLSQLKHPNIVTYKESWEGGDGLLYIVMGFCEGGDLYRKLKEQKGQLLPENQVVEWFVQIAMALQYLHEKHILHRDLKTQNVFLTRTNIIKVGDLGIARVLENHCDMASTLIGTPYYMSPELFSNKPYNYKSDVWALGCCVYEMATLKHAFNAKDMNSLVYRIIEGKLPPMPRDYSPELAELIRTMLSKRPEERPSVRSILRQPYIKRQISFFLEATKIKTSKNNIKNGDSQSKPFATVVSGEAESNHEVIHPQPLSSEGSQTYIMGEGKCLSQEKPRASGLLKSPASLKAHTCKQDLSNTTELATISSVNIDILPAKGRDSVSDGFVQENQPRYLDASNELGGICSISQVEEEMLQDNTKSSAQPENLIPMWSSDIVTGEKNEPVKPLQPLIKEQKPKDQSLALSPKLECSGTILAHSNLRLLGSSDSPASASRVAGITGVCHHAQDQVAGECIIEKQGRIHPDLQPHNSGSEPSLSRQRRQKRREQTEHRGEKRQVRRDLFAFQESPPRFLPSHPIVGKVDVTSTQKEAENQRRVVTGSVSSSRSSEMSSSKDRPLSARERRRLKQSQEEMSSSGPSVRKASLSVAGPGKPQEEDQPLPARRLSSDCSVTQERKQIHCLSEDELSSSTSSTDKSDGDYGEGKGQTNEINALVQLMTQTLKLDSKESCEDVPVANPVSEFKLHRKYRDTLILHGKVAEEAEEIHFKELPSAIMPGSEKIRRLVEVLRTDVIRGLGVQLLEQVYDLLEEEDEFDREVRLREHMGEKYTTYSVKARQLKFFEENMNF
T1 sequence (Q00535 whole entry): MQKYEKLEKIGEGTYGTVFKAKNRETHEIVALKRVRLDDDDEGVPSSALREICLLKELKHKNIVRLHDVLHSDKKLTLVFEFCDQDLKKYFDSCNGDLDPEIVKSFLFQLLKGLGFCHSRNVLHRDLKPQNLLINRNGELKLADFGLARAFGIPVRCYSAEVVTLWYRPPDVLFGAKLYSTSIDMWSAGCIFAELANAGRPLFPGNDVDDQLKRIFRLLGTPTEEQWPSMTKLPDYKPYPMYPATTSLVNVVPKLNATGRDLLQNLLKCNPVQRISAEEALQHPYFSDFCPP
T1 sequence (Q15078 whole entry partner): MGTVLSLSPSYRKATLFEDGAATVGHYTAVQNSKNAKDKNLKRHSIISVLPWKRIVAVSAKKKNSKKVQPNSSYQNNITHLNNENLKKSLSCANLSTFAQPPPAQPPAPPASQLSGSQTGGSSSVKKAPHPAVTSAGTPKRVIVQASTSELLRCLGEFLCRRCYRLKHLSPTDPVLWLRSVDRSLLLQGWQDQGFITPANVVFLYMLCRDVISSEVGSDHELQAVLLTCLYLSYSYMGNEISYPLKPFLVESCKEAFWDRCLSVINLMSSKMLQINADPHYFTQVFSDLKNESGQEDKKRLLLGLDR
T7 sequence (P11309 whole entry): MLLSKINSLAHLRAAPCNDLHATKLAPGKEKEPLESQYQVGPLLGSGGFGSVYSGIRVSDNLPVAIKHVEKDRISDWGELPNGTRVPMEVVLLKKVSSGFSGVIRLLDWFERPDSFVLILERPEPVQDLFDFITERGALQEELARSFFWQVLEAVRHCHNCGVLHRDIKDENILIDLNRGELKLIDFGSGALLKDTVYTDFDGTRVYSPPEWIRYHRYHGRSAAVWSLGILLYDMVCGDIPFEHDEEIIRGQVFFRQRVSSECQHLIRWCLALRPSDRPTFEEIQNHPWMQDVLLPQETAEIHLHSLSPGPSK
T4 sequence (P29317 24-976): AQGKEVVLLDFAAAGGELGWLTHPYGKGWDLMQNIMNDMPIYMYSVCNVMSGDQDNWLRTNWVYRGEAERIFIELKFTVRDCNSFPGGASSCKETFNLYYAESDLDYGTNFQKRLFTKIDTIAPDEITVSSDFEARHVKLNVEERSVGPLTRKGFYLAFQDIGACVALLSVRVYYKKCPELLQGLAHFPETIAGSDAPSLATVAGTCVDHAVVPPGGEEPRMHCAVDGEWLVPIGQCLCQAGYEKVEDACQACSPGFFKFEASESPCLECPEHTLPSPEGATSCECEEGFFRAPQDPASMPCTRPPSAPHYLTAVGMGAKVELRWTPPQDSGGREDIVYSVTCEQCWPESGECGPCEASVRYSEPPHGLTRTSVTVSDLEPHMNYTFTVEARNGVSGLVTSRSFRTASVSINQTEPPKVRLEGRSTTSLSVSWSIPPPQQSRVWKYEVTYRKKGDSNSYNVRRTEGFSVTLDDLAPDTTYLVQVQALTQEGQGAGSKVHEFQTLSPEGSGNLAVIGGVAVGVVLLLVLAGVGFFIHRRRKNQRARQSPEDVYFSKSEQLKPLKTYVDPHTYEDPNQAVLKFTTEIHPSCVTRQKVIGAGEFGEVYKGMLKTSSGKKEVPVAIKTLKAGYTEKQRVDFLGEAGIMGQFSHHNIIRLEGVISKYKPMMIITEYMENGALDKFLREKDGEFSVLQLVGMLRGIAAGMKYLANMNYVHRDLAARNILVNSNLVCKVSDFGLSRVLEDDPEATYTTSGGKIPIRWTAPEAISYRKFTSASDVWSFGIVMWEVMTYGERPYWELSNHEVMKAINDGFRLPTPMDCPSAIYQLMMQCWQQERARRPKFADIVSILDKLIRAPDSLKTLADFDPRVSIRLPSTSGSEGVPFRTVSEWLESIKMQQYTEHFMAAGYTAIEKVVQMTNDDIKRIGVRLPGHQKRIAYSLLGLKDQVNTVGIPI
T2 sequence (P04629 33-796): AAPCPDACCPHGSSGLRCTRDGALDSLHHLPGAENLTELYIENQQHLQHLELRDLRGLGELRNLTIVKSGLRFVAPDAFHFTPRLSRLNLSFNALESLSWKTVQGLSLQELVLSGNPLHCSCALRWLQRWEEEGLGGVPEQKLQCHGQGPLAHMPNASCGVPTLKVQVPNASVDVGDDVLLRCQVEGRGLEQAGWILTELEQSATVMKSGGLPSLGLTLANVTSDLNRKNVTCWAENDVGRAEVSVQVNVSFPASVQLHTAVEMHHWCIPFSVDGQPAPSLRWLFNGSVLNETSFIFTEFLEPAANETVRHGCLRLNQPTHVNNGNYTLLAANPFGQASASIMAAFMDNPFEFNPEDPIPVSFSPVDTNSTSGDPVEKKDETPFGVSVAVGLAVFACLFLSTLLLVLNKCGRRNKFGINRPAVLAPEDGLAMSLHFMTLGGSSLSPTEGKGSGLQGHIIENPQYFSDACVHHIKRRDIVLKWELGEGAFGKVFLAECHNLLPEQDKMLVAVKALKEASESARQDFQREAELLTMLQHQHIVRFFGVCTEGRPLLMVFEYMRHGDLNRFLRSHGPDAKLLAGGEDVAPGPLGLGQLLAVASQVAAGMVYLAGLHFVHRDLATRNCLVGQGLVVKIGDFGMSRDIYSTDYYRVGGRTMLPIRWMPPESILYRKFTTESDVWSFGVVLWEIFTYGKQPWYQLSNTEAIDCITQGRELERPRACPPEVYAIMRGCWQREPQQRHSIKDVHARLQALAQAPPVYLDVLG
T3 sequence (Q16288 32-839): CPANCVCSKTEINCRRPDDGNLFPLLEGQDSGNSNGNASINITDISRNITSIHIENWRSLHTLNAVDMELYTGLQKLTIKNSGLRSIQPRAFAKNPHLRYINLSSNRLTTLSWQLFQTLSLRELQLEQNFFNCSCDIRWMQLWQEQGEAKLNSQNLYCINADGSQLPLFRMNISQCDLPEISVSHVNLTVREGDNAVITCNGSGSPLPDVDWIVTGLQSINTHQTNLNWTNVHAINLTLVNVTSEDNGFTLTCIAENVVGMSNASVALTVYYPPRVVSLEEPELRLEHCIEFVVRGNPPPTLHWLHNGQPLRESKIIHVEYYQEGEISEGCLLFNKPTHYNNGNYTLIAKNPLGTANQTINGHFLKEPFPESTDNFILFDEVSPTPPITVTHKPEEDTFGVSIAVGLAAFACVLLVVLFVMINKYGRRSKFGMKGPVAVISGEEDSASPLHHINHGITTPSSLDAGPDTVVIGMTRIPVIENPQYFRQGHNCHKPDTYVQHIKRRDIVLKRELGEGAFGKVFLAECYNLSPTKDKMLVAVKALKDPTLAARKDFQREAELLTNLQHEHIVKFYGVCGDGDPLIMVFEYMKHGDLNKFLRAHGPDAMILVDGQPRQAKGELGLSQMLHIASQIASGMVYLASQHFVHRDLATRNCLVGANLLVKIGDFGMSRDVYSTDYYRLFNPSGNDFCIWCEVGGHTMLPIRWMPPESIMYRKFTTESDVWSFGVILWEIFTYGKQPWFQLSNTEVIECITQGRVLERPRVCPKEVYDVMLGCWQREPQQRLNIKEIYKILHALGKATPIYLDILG

Structure (SMILES): COc1ccnc2[nH]cc(-c3cc(N)nc(N)c3)c12 [meriolin 16]
- residual kinase activity (CDK5/p35NCK; 0.03 µM): 7 % of control
- residual kinase activity (CDK5/p35NCK; 0.3 µM): 1 % of control
- residual kinase activity (TRKA; 0.03 µM): 83 % of control
- residual kinase activity (TRKA; 0.3 µM): 40 % of control
- residual kinase activity (TRKC; 0.03 µM): 72 % of control
- residual kinase activity (TRKC; 0.3 µM): 36 % of control
- residual kinase activity (EPHA2; 0.03 µM): 109 % of control
- residual kinase activity (EPHA2; 0.3 µM): 101 % of control
- residual kinase activity (RIPK4; 0.03 µM): 94 % of control
- residual kinase activity (RIPK4; 0.3 µM): 75 % of control
- residual kinase activity (MAPKAPK5; 0.3 µM): 85 % of control
- residual kinase activity (PIM1; 0.03 µM): 77 % of control
- residual kinase activity (PIM1; 0.3 µM): 40 % of control
- residual kinase activity (EPHB3; 0.03 µM): 101 % of control
- residual kinase activity (EPHB3; 0.3 µM): 99 % of control
- residual kinase activity (GSK3α; 0.03 µM): 99 % of control
- residual kinase activity (GSK3α; 0.3 µM): 93 % of control
- residual kinase activity (NEK4; 0.03 µM): 89 % of control
- residual kinase activity (NEK4; 0.3 µM): 47 % of control
- residual kinase activity (MST3; 0.03 µM): 101 % of control
- residual kinase activity (MST3; 0.3 µM): 91 % of control
- residual kinase activity (NIK; 0.03 µM): 94 % of control
- residual kinase activity (NIK; 0.3 µM): 79 % of control
- residual kinase activity (NEK7; 0.03 µM): 111 % of control
- residual kinase activity (NEK7; 0.3 µM): 96 % of control
- residual kinase activity (COT; 0.03 µM): 104 % of control
- residual kinase activity (COT; 0.3 µM): 86 % of control

Structure (SMILES): c1ccc(CNc2cc(-c3c[nH]c4ncccc34)ccn2)cc1 [meriolin 36]
- residual kinase activity (CDK5/p35NCK; 0.3 µM): 0 % of control
- residual kinase activity (CDK5/p35NCK; 3 µM): 0 % of control
- residual kinase activity (TRKA; 0.3 µM): 9 % of control
- residual kinase activity (TRKA; 3 µM): 1 % of control
- residual kinase activity (TRKC; 0.3 µM): 18 % of control
- residual kinase activity (TRKC; 3 µM): 2 % of control
- residual kinase activity (EPHA2; 0.3 µM): 101 % of control
- residual kinase activity (EPHA2; 3 µM): 72 % of control
- residual kinase activity (RIPK4; 0.3 µM): 88 % of control
- residual kinase activity (RIPK4; 3 µM): 45 % of control
- residual kinase activity (MAPKAPK5; 3 µM): 69 % of control
- residual kinase activity (PIM1; 0.3 µM): 55 % of control
- residual kinase activity (PIM1; 3 µM): 14 % of control
- residual kinase activity (EPHB3; 0.3 µM): 91 % of control
- residual kinase activity (EPHB3; 3 µM): 67 % of control
- residual kinase activity (GSK3α; 0.3 µM): 41 % of control
- residual kinase activity (GSK3α; 3 µM): 7 % of control
- residual kinase activity (NEK4; 0.3 µM): 84 % of control
- residual kinase activity (NEK4; 3 µM): 37 % of control
- residual kinase activity (MST3; 0.3 µM): 71 % of control
- residual kinase activity (MST3; 3 µM): 32 % of control
- residual kinase activity (NIK; 0.3 µM): 59 % of control
- residual kinase activity (NIK; 3 µM): 33 % of control
- residual kinase activity (NEK7; 0.3 µM): 103 % of control
- residual kinase activity (NEK7; 3 µM): 107 % of control
- residual kinase activity (COT; 0.3 µM): 85 % of control
- residual kinase activity (COT; 3 µM): 92 % of control

— paper PMC11167047 (Cell Death Discovery, 2024)
